Assay results taken from patent US7915316B2, “Sulfonamides” (Allergan, Inc, priority 2005, dated 2011).

How the values were obtained:
[1] = target: T1, EP4 (Homo sapiens, UniProt P35408); experiment: EP4 receptor binding (bhEP4 / EP4 Binding); conditions: for IC50: Table 1; for EC50 / EP4 Binding % Inh: Table 2; as to EP4 Binding % Inh: test concentration or dose not given here
[2] = target: T2, EP2 (Homo sapiens, UniProt P43116); experiment: EP2 receptor binding (bhEP2 / EP2 Binding); conditions: for IC50: Table 1; for EC50 / EP2 Binding % Inh: Table 2; as to EP2 Binding % Inh: test concentration or dose not given here
[3] = target: T2, EP2; experiment: cAMP assay; assay type: cell-based
[4] = target: T2, EP2; experiment: functional activity at hEP2 (fhEP2); assay type: cell-based; conditions: Table 1
[5] = target: T2, EP2; experiment: Ca2+ signal, EP2; assay type: cell-based; conditions: for Emax: relative to PGE2
[6] = target: T1, EP4; experiment: Ca2+ signal, EP4; assay type: cell-based; conditions: relative to PGE2
[7] = target: IP (Homo sapiens, UniProt P43119); experiment: activity at IP receptor; conditions: Table 2
[8] = target: T3, TP (Homo sapiens, UniProt P21731); experiment: activity at TP receptor; conditions: Table 2
T3 sequence (P21731 1-343): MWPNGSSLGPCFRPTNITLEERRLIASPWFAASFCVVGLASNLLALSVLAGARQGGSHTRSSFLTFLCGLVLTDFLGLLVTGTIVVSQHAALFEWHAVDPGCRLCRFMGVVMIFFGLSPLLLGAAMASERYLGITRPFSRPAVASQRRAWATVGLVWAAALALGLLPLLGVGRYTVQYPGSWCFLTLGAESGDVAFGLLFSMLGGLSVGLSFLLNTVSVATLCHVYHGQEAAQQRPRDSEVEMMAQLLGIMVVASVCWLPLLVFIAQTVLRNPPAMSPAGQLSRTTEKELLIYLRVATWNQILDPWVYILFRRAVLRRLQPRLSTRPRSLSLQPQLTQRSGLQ

[9] = test system: EP2 and EP4 receptors; experiment: in-vitro assay for binding to and activity at various prostaglandin receptors; conditions: as compared to the FP, EP1, TP, IP and DP receptors

Sequence of IP (P43119 whole entry): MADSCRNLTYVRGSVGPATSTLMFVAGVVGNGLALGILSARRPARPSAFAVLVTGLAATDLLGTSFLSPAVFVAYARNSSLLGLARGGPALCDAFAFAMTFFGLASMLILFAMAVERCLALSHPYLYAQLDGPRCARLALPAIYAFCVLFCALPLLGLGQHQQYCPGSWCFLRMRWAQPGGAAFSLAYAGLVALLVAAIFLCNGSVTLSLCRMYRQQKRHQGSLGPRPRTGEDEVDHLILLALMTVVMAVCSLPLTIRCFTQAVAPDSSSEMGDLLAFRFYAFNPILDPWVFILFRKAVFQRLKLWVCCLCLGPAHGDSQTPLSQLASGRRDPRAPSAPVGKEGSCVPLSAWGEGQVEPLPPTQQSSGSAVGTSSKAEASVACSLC
T2 sequence (P43116 whole entry): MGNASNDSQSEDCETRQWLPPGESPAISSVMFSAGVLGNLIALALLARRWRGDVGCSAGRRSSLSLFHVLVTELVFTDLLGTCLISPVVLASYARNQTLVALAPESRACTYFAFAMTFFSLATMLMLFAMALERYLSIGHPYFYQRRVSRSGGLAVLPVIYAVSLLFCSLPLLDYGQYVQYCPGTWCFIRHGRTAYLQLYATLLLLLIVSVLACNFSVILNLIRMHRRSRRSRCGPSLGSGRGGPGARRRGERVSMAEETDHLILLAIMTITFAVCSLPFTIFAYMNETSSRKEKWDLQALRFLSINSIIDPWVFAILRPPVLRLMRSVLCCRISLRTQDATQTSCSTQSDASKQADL
T1 sequence (P35408 whole entry): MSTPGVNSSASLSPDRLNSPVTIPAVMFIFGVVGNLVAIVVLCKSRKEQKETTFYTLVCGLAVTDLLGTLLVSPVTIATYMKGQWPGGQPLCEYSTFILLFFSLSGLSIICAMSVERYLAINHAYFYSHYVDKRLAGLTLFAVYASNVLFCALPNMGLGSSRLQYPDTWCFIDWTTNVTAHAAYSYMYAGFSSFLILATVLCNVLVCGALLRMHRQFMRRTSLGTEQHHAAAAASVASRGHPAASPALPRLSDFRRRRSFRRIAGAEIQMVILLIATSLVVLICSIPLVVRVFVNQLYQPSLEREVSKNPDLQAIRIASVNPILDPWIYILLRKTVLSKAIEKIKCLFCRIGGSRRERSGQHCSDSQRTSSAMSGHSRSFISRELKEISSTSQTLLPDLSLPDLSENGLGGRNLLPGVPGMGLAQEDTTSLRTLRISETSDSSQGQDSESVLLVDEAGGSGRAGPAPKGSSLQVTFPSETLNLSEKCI

Compound | IC50 [1] [nM] | IC50 [2] [nM] | EC50 ([3]; Table 1, read-out: cAMP) [nM] | EC50 [4] [nM] | EC50 [1] [nM] | EP4 Binding % Inh [1] [%] | EC50 [5] [nM] | Emax [5] [%] | EC50 [2] [nM] | EP2 Binding % Inh [2] [%] | Emax [6] [%] | IP [7] | TP [8] | EC50 ([3]; Table 2, read-out: cAMP EC50) [nM] | selectivity at EP2 and EP4 receptors [9]
CCCCCC(O)c1ccc(CN(CCCCCCC(=O)O)S(=O)(=O)c2cccnc2)cc1 (centres unmarked) | 546 | 4730 | 138 | 275 |  |  |  |  |  |  |  |  |  |  | 
CS(=O)(=O)N(C/C=C\CCCC(=O)O)CCOc1cc(Cl)cc(Cl)c1 |  |  |  |  | 2920 | 64 | 2960 | 83 | 1900 | 81 | 10 | 403 | 7008 | 214 | 
CS(=O)(=O)N(CC#CCCCC(=O)O)CCOc1cc(Cl)cc(Cl)c1 |  |  |  |  | 4170 | 55 | 1250 | 90 | 1130 | 87 | 5 | IP = 868 |  | 84 | 
CCCCCC(O)c1ccc(CN(Cc2ccc(OCC(=O)O)cc2)S(=O)(=O)c2cccnc2)cc1 (centres unmarked) |  |  |  |  | 1320 | 89 | 11 | 92 | 208 | 97 | 2 |  |  | 3.5 | 
CC(C)(C)c1ccc(CN(Cc2ccc(OCC(=O)O)cc2)S(=O)(=O)c2cccnc2)cc1 [4-[[4-(1-t-butyl)benzyl]pyridinesulfonylaminomethyl]phenoxyacetic acid] |  |  |  |  | 1340 | 59 | 20 | 87 | 100 | 93 | 0 |  |  | 18 | 
CCCCCC(O)c1ccc(CN(CCCCCCC(=O)O)S(=O)(=O)c2ccccc2)cc1 (centres unmarked) [7-[[4-(1-hydroxyhexyl)benzyl]benzenesulfonylamino]heptanoic acid] | 150 |  |  | 634 |  |  |  |  |  |  |  |  |  |  | 
CCCCCC(O)c1ccc(CN(CC#CCCCC(=O)O)S(C)(=O)=O)cc1 (centres unmarked) [7-[[4-(1-hydroxyhexyl)benzyl]methanesulfonylamino]hept-5-yne-oic acid] |  |  |  |  |  |  | 620 |  | 5680 |  |  |  |  | 24 | 
CCCCCC(O)c1ccc(CN(CCCCCCC(=O)O)S(=O)(=O)c2cccs2)cc1 (centres unmarked) [7-[[4-(1-hydroxyhexyl)benzyl]thiophenesulfonylamino]heptanoic acid] | 90 | 1490 | > 10000 | 600 |  |  |  |  |  |  |  |  |  |  | 
CC(C)(C)c1ccc(CN(CCCCCCC(=O)O)S(=O)(=O)c2ccccc2)cc1 [7-[[4-(1-t-butyl)benzyl]benzenesulfonylamino]heptanoic acid] |  |  |  |  | 373 | 99 | 964 | 78 | 1540 | 82 | 11 |  |  | 965 | 
CC(C)(C)c1ccc(CN(CCCCCCC(=O)O)S(C)(=O)=O)cc1 [7-[[4-(1-t-butyl)benzyl]methanesulfonylamino]heptanoic acid] |  |  |  |  |  | 41 | 2310 | 89 |  | 60 | 2 | IP = 2561 |  | 156 | 
CC(C)(C)c1ccc(CN(CCCCCCC(=O)O)S(=O)(=O)c2cccnc2)cc1 [7-[[4-(1-t-butyl)benzyl]pyridinesulfonylamino]heptanoic acid] |  |  |  |  | 1380 | 71 | 591 | 83 | 829 | 73 | 1 |  |  | 126 | 
CC(C)(C)c1ccc(CN(CCCCCCC(=O)O)S(=O)(=O)c2cccs2)cc1 [7-[[4-(1-t-butyl)benzyl]thiophenelsulfonylamino]heptanoic acid] |  |  |  |  | 706 | 94 | 1130 | 71 | 493 | 76 | 9 |  |  | 1970 | 
CCCCCC(O)c1ccc(CN(CCCCCCC(=O)O)S(C)(=O)=O)cc1 (centres unmarked) [Compound 12, 7-[[4-(1-Hydroxyhexyl)benzyl]methanesulfonylamino]heptanoic acid] |  | 1690 | 16 | 406 |  |  |  |  |  |  |  |  |  |  | selective at the EP2 and EP4 receptors
